From patent US9795139B2, “Molecules having pesticidal utility, and intermediates, compositions, and processes, related thereto” (priority 2015, dated 2017)

Columns and labels:
Format in all cases: in vivo
[1] = test system: Yellow Fever Mosquito (Aedes aegypti, AEDSAE); details: about 1 day-old larvae, 96-well plate from 4000 ppm DMSO master, 3 days at room temperature
Summary of the method: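 Each well was scored for mortality after 3 days at room temperature under a non-evaporative lid. Test molecules came from DMSO masters (4000 ppm stock) diluted with water/acetone 90:10 and dispensed into six replicate plates, which were then infested with roughly 1-day-old larvae in liver-powder water.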

[2] = test system: Green Peach Aphid (Myzus persicae, MYZUPE); assay: Bioassay on Green Peach Aphid (GPA), foliar spray on cabbage seedlings; details: 72 h, 200 ppm foliar spray on cabbage seedlings, three days, Abbott corrected % control, read-out: GPA % Control (or Mortality) rating
Experimental: Certain molecules disclosed in this document were tested against GPA using procedures described in the following example. In the reporting of the results, the “GPA & YFM Rating Table” was used (See Table Section).
Cabbage seedlings grown in 3-inch pots, with 2-3 small (3-5 cm) true leaves, were used as test substrate. The seedlings were infested with 20-50 GPA (wingless adult and nymph stages) one day prior to chemical application. Four pots with individual seedlings were used for each treatment. Test molecules (2 mg) were dissolved in 2 mL of acetone/methanol (1:1) solvent, forming stock solutions of 1000 ppm test molecule.
The stock solutions were diluted 5× with 0.025% Tween 20 in water to obtain the solution at 200 ppm test molecule. A hand-held aspirator-type sprayer was used for spraying a solution to both sides of […] leaves until runoff. Reference plants (solvent check) were sprayed with the diluent only containing 20% by volume of acetone/methanol (1:1) solvent. Treated plants were held in a holding room for three days at approximately 25° C. and ambient relative humidity (RH) prior to grading. Evaluation was conducted by counting the number of live aphids per plant under a microscope. Percent control was measured using Abbott's correction formula (W. S. Abbott, “A Method of Computing the Effectiveness of an Insecticide” J. Econ. Entomol. 18 (1925), pp. 265-267) as follows. Corrected % Control=100*(X−Y)/X where X=No. of live aphids on solvent check plants and Y=No. of live aphids on treated plants. The results are indicated in the table entitled “Table ABC: Biological Results” (See Table Section).

[3] = test system: Beet Armyworm (Spodoptera exigua, LAPHEG); assay: Bioassay on Beet Armyworm (BAW), 128-well diet tray assay; details: 168 h, 50 μg/cm^2 on artificial diet, second instar larvae, 25° C., five to seven days, average of eight wells, read-out: BAW % Control (or Mortality) rating
Summary of the method: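 Second instar larvae were exposed to diet treated at 50 μg/cm^2 for five to seven days at 25° C.; mortality was averaged over eight wells.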

[4] = test system: Cabbage Looper (Trichoplusia ni, TRIPNI); assay: Bioassay on Cabbage Looper (CL), 128-well diet tray assay; details: 168 h, 50 μg/cm^2 on artificial diet, second instar larvae, 25° C., five to seven days, average of eight wells, read-out: CL % Control (or Mortality) rating
Summary of the method: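 Second-instar larvae, one to five per well, placed on artificial diet treated with 50 μg/cm^2 test molecule in 90:10 acetone-water, dried before infestation. Held 5–7 days at 25° C, 14:10 light-dark; percent mortality averaged over eight wells.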

| Structure (SMILES) | YFM % Control (or Mortality) rating [1] | mortality at 200 ppm [2] [%] | mortality at 50 µg/cm2 [3] [%] | mortality at 50 µg/cm2 [4] [%] |
| --- | --- | --- | --- | --- |
| N#CC1(NC(=O)c2cc(NC(=O)[C@H]3[C@H](c4cc(Cl)c(Cl)c(Cl)c4)C3(Cl)Cl)ccc2Cl)CCC1 (relative stereo) [Molecule F13, trans-2-Chloro-N-(1-cyanocyclobutyl)-5-(2,2-dichloro-3-(3,4,5-trichlorophenyl)cyclopropanecarboxamido)benzamide] | A (80-100) | 0 to 80 | 50 to 100 | 50 to 100 |
| O=C(NC1CSC1)c1cc(NC(=O)[C@H]2[C@H](c3ccc(Cl)c(Cl)c3)C2(Cl)Cl)ccc1Cl (relative stereo) [Molecule F16, trans-2-Chloro-5-(2,2-dichloro-3-(3,4-dichlorophenyl)cyclopropanecarboxamido)-N-(thietan-3-yl)benzamide] | A (80-100) | 80 to 100 | 50 to 100 | 50 to 100 |
| O=C(NC1CC(F)(F)C1)c1cc(NC(=O)[C@H]2[C@H](c3cccc(C(F)(F)F)c3)C2(Cl)Cl)ccc1Cl (relative stereo) [Molecule F19, trans-2-Chloro-5-(2,2-dichloro-3-(3-(trifluoromethyl)phenyl)cyclopropanecarboxamido)-N-(3,3-difluorocyclobutyl)benzamide] | B (More than 0-Less than 80) | 80 to 100 | 50 to 100 | 50 to 100 |
| N#Cc1cc(Cl)cc([C@H]2[C@H](C(=O)Nc3ccc(Cl)c(C(=O)NC4(C#N)CC4)c3)C2(Cl)Cl)c1 (relative stereo) [Molecule F78, trans-2-Chloro-N-(1-cyanocyclopropyl)-5-(2,2-dichloro-3-(3-chloro-5-cyanophenyl)cyclopropane-1-carboxamido)benzamide] | D (No activity noticed in this bioassay) | 0 to 80 | 50 to 100 | 50 to 100 |
| O=C(NC1CCC1)c1cc(NC(=O)[C@H]2[C@H](c3ccc(Cl)c(Cl)c3)C2(Cl)Cl)ccc1Cl (relative stereo) [Molecule F41, trans-2-Chloro-N-cyclobutyl-5-(2,2-dichloro-3-(3,4-dichlorophenyl)cyclopropanecarboxamido)benzamide] | A (80-100) | 80 to 100 | 50 to 100 | 50 to 100 |
| O=C(NC1CC(F)(F)C1)c1cc(NC(=O)[C@H]2[C@H](c3cc(Cl)cc(Cl)c3)C2(Cl)Cl)ccc1Cl (relative stereo) [Molecule F5, trans-2-Chloro-5-(2,2-dichloro-3-(3,5-dichlorophenyl)cyclopropanecarboxamido)-N-(3,3-difluorocyclobutyl)benzamide] | A (80-100) | 80 to 100 | 50 to 100 | 50 to 100 |
| O=C(NC1CSC1)c1cc(NC(=O)[C@H]2[C@H](c3cc(Cl)c(Cl)c(Cl)c3)C2(Cl)Cl)ccc1Cl (relative stereo) [Molecule F17, trans-2-Chloro-5-(2,2-dichloro-3-(3,4,5-trichlorophenyl)cyclopropanecarboxamido)-N-(thietan-3-yl)benzamide] | A (80-100) | 80 to 100 | 50 to 100 | 50 to 100 |
| N#CC1(NC(=O)c2cc(NC(=O)[C@H]3[C@H](c4cc(Cl)cc(Cl)c4)C3(Cl)Cl)ccc2Cl)CC1 (relative stereo) [Molecule F4, trans-2-Chloro-N-(1-cyanocyclopropyl)-5-(2,2-dichloro-3-(3,5-dichlorophenyl)cyclopropanecarboxamido)benzamide] | A (80-100) | 80 to 100 | 50 to 100 | 50 to 100 |
